According to US9604899B2, “Bipolar trans carotenoid salts and their uses” (Diffusion Pharmaceuticals LLC, priority 2002, dated 2017):

Legend:
[1] = solubility in sodium carbonate-deionized water solution (pH 8.0); assay type: physicochemical; conditions: pH 8, aqueous buffer, thermodynamic from solid, pH 8.0, room temperature, read-out: solubility in water adjusted to pH 8.0 with very dilute sodium carbonate
Procedure: A BTCS such as TSC dissolves in very dilute sodium carbonate solutions. A dilute, eg 0.00001-0.001M, solution of sodium carbonate can be added, dropwise, to deionized water until the pH is 8.0 (the pH of deionized water is usually 5-6). This only takes a few drops of the very dilute sodium carbonate per, say, 50 mls of deionized water. This sodium carbonate-deionized water solution is capable of completely dissolving a large amount of TSC (around 10 mg/ml)—which is remarkable considering the hydrophobicity of the carotenoid portion of the BTCS.

[2] = dissolution in normal (isotonic) saline and other salt solutions; assay type: physicochemical; conditions: up to several milligrams per ml added
Procedure: Large volumes (as much as 3 times the estimated blood loss) of isotonic saline (also called normal saline) are infused as a treatment for hemorrhagic shock. The isotonic saline contains 9 g NaCl per liter of water so as not to disturb the ionic strength of the plasma once it is infused into the body. […] About 50% of the TSC dissolves in normal saline no matter how much TSC is added (up to several milligrams per ml), which means that undissolved particles of TSC are still present. […] The actual composition of the stock solution can be verified using UV-visible spectroscopy. This stock solution can be added to normal saline and the TSC remains dissolved.
This method can be used to dissolve a BTCS in other types of sodium chloride solutions, as well as in solutions of other salts such as KCl, Na2SO4, lactate, etc. Several, eg 1-3 mg/ml, can be put into solution in this manner.

[3] = solubility in common organic solvents; assay type: physicochemical; conditions: chloroform, DMSO, pyridine, methanol, acetone, glacial acetic acid
Excerpt: Attempts were made to dissolve TSC in order to obtain a ^1H NMR spectrum. […] The TSC produced from this project was characterized by IR, UV, HPLC and elemental analyses. […] UV and HPLC were consistent with authentic TSC.^7 Elemental analyses gave satisfactory values.

[4] = diffusivity of oxygen through aqueous solutions
hemorrhaged rats [5] = assay: hemorrhagic shock in rats (Roy et al); conditions: rat, in vivo
Procedure: In Roy et al, Shock 10, 213-7. (1998), hemorrhaged rats (55% blood volume) were given a bolus of trans sodium crocetinate (TSC) after the hemorrhage ended, followed by saline after another 30 minutes. […] Whole-body oxygen consumption increased in the TSC group, reaching 75% of normal resting value after about 15 minutes.

[6] = TSC by inhalation, drug in blood stream; assay type: in vivo, rat; conditions: rats
Procedure: TSC has been given to rats via an inhalation route. Ten rats were given TSC directly into the lungs. This was done by inserting a tube into the trachea, and nebulizing 0.2 ml of TSC solution (TSC dissolved in dilute sodium carbonate solution) with about 3 to 6 mls of air. For all dosages studied (0.5-2 mg/kg), about 20% of the drug was present in the blood stream within one minute after it was given.

[7] = oral administration of TSC (gavage), drug in blood stream; assay type: in vivo, rat; conditions: two rats, 15 to 30 minutes after being given
Excerpt: TSC has been shown, in rats, to be absorbed into the blood stream when administered orally (via a gavage technique). […] The maximum amount absorbed orally actually occurred earlier than that time.

[8] = simulated TSC molecule surrounded with water molecules; cited from earlier work
hemorrhaged rats [9] = conditions: cited from earlier work
[10] = test system: rat model of acute hypoxia; conditions: 10% oxygen air mixture, TSC given after 10 minutes; cited from earlier work
[11] = stability (aqueous solution, dry form); conditions: tap, distilled, deionized water
[12] = background statement; cited from earlier work

Compound | solubility [1] | fraction of added TSC that dissolves in normal saline [2] | solubility in most common organic solvents [3] | increase of diffusivity of oxygen through aqueous solutions [4] | oxygen consumption of rats undergoing hemorrhagic shock (hemorrhaged rats [5]) | period the drug was present in the blood stream ([6]; inhalation, 0.8-1.6 mg/kg) | fraction of the drug present in the blood stream ([6]; nebulized into trachea, 0.5-2 mg/kg, within one minute) | fraction of the dosage given present in the blood stream [7] | computational increase in diffusivity [8] | whole-body oxygen consumption (hemorrhaged rats [9]; hemorrhaged rats, after about 15 minutes) | survival (hemorrhaged rats [9]; rats hemorrhaged 55% blood volume, TSC bolus after hemorrhage, saline after 30 minutes) | survival and hemodynamic stability [10] | solubility in deionized water versus normal water (solubility in water) | solubility (solubility in water; water) | stability of solutions in water [11] | solubility in water [12]
CC(/C=C/C=C(\C)C(=O)[O-])=C\C=C\C=C(C)\C=C\C=C(/C)C(=O)[O-].[Na+].[Na+] [TSC, Trans Sodium Crocetinate] | ~10000 µg/mL | About 50% | practically insoluble | about 30% | increase the oxygen consumption | at least two hours | about 20% | 1 to 2% | ~30% | 75 % of normal resting value | All of the TSC-treated animals lived | all survived with good hemodynamic stability for over two hours | more soluble in deionized water | ~10000 µg/mL | only stable if the pH is adjusted so as to make the solution basic | 
CC(/C=C/C=C(\C)C(=O)O)=C\C=C\C=C(C)\C=C\C=C(/C)C(=O)O [crocetin] |  |  |  |  |  |  |  |  |  |  |  |  |  |  |  | only sparingly soluble in water
CC(/C=C/C=C(\C)C(=O)O[C@@H]1O[C@H](CO[C@@H]2O[C@H](CO)[C@@H](O)[C@H](O)[C@H]2O)[C@@H](O)[C@H](O)[C@H]1O)=C\C=C\C=C(C)\C=C\C=C(/C)C(=O)O[C@@H]1O[C@H](CO[C@@H]2O[C@H](CO)[C@@H](O)[C@H](O)[C@H]2O)[C@@H](O)[C@H](O)[C@H]1O [crocin] |  |  |  |  |  |  |  |  |  |  |  |  |  |  |  | significant solubility in water
